# Measurements from article PMC3388080 (PLoS ONE, 2012).
# Tests used:
# [1] = Plasma and brain exposure at the end of the LMA experiment; type: in vivo, rat; details: 35 min
# Procedure: Locomotor activity (LMA) was evaluated at F. Hoffmann-La Roche as described previously. Male Wistar rats were placed for 2 weeks in a 12 h light/12 h dark cycle with light onset at 22∶00 (ZT0). […] Spontaneous LMA was recorded for a period of 30 min. At the end of the experiment, the brain and plasma were collected for determination of the drug exposure and brain/plasma concentration ratio.
# The plasma and brain exposure of SB-334867 were measured at the end of the LMA experiment.
# HCRTR1 = molecular target: T1, HCRTR1 (Rattus norvegicus, UniProt P56718); test: in vivo; type: in vivo
# T1 construct: from tissue; host or cells: coronal brain sections of male Sprague-Dawley rats (locus coeruleus)
# T1 sequence (P56718 1-416): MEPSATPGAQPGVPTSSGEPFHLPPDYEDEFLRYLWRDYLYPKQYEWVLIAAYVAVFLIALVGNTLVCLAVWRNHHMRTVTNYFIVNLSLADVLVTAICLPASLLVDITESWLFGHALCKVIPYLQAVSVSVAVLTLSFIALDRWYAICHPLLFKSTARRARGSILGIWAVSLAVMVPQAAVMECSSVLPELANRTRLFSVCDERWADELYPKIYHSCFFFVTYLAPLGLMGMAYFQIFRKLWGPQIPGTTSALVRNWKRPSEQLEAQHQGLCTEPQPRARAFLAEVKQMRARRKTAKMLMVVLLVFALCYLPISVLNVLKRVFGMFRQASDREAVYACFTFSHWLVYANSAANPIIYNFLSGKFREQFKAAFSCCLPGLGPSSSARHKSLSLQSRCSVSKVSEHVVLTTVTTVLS
# HCRTR2 = molecular target: T2, HCRTR2 (Rattus norvegicus, UniProt P56719); test: HCRTR2 occupancy, [^3H]EMPA autoradiography of brain sections; type: in vivo; details: 30 mg/kg ip; for receptor occupancy at 30 mg/kg: rat, ip, 12 h
# T2 construct: from tissue; host or cells: coronal brain sections of male Sprague-Dawley rats (TMN, DRN, CC, CA3, RSC, Pn)
# T2 sequence (P56719 1-460): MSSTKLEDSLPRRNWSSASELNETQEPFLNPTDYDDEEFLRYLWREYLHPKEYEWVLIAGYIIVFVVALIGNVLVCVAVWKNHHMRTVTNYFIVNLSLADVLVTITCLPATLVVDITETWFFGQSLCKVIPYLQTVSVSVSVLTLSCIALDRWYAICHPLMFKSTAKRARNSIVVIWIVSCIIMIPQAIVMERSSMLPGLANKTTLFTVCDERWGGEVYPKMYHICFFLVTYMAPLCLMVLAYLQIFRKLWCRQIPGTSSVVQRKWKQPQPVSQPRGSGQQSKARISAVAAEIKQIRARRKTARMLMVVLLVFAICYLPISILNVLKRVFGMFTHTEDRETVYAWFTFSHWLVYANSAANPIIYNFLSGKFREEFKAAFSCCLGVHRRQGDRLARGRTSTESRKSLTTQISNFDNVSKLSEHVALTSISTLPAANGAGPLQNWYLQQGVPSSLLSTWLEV
Compound,brain level ([1]; 3 mg/kg ip) [ng/mL],plasma level ([1]; 3 mg/kg ip) [ng/mL],brain level ([1]; 10 mg/kg ip) [ng/mL],plasma level ([1]; 10 mg/kg ip) [ng/mL],brain level ([1]; 30 mg/kg ip) [ng/mL],plasma level ([1]; 30 mg/kg ip) [ng/mL],HCRTR1 RO (HCRTR1; in vivo),HCRTR1 RO (in words) (HCRTR1; in vivo),"HCRTR1 RO, maximum (HCRTR1; in vivo) [%]","receptor occupancy at 30 mg/kg (HCRTR1; ip, read-out: HCRTR1 occupancy) [%]","HCRTR2 RO (HCRTR2; all 6 structures, within 30 min, maximal at 2 h and 4 h) [%]",receptor occupancy at 30 mg/kg (HCRTR2; CA3) [%],receptor occupancy at 30 mg/kg (HCRTR2; CC) [%],receptor occupancy at 30 mg/kg (HCRTR2; DRN) [%],receptor occupancy at 30 mg/kg (HCRTR2; Pn) [%],receptor occupancy at 30 mg/kg (HCRTR2; RSC) [%],receptor occupancy at 30 mg/kg (HCRTR2; TMN) [%]
"Cc1nc2ccc(NC(=O)Nc3ccnc4cccnc34)cc2o1.Cl [SB-334867, 1-(2-methylbenzoxazol-6-yl)-3-[1], [5]naphthyridin-4-yl-urea hydrochloride]",48,220,171,718,142,738,,,,,,,,,,,
"CNC(=O)[C@@H](c1ccccc1)N1CCc2cc(OC)c(OC)cc2[C@@H]1CCc1ccc(C(F)(F)F)cc1 [almorexant, (2R)-2-[(1S)-6,7-Dimethoxy-1-[2-(4-trifluoromethyl-phenyl)-ethyl]-3,4-dihydro-1H-isoquinolin-2-yl]-N-methyl-2-phenyl-acetamide]",,,,,,,50–60%,returned to basal levels,59,~50,~100,58.4 ± 11.5,66.1 ± 11.6,57.7 ± 10.5,67.2 ± 13.9,64.6 ± 10.7,49.2 ± 13.2
